Laboratory results: PMC5519928, “Log D versus HPLC derived hydrophobicity: The development of predictive tools to aid in the rational design of bioactive peptoids” (Biopolymers, 2017)
Values after ≈ are worked out from the molar mass of the structure shown. Non-standard residues stand in square brackets, D forms with d. Residues, ends and D or L forms follow the SMILES beside them. Gly(N-2-aminoethyl) = NCCNCC(=O)O; Nspe = C[C@H](NCC(=O)O)c1ccccc1; Nphe = O=C(O)CNCc1ccccc1; Nlys = NCCCCNCC(=O)O

Assays:
[1] = Average hydrophobicity by analytical reverse-phase HPLC retention; format: physicochemical; settings: for RP-HPLC Retention (% MeCN): Supplement table 4 (chemical and physical data for peptoid library), % MeCN at elution in RP-HPLC; for RP-HPLC Retention: Table S3, representative analytical RP-HPLC traces, SB-Analytical ODH-S column 100 x 1.6 mm, 3.5 µm, 0-100% solvent B over 30 min at 220 nm, A = 95% H2O, 0.05% TFA, B = 95% MeCN, 0.03% TFA
Protocol: (§1) To examine the average hydrophobicity of the peptoids, the retention time for from reverse‐phase HPLC was determined on a C18 column using acetonitrile and water, with 0.1% TFA (see Figure 3A). To find log D values, partitioning experiments were carried out, as illustrated by Figure 2. A peptoid solution (between 10 and 100 µM) in PBS was added to an equal volume of octanol and the system allowed to equilibrate under gentle agitation for ∼150 h (as 48 h was not found to be sufficient for the system to reach equilibrium). At this point it is assumed that the peptoid has partitioned between these two phases, such as to minimise its free energy.
Preparative RP‐HPLC was performed with a semi‐preparative Perkin Elmer Series 200 lc pump fitted with a 785A UV/Vis detector using a SB‐Analytical ODH‐S optimal column (250 mm × 10 mm, 5 µm); flow rate 2 mL min^−1; λ = 250 nm, typical linear gradient elution 0–50% of solvent B over 60 min (A = 0.1% TFA in 95% H2O and 5% MeCN, B = 0.1% TFA in 5% H2O and 95% MeCN). Analytical RP‐HPLC was performed with a Perkin Elmer Series 200 LC pump fitted with a Series 200 UV/Vis detector using a SB‐Analytical ODH‐S optimal column (100 mm × 1.6 mm, 3.5 µm); flow rate 1 mL min^−1; λ = 220 nm, linear gradient elution 0–100% of solvent B over 30 min (A = 0.05% TFA, 95% H2O, 5% MeCN, B = 0.03% TFA, 5% H2O, 95% MeCN).
Preparative RP-HPLC was performed with a semi-preparative Perkin Elmer Series 200 lc pump fitted with a 785A UV/Vis detector using a SB-Analytical ODH-S optimal column (250 × 10 mm, 5 µm); flow rate 2 ml min^−1; λ = 250 nm, typical linear gradient elution 0-50% of solvent B over 60 min (A = 0.1% TFA in 95% H2O and 5% MeCN, B = 0.1% TFA in 5% H2O and 95% MeCN). Analytical RP-HPLC was performed with a Perkin Elmer Series 200 LC pump fitted with a Series 200 UV/Vis detector using a SB-Analytical ODH-S optimal column (100 × 1.6 mm, 3.5 µm); flow rate 1 ml min^−1; λ = 220 nm, linear gradient elution 0-100% of solvent B over 30 min (A = 0.05% TFA, 95% H2O, 5% MeCN, B = 0.03% TFA, 5% H2O, 95% MeCN).
Table S3. Data from analytical RP-HPLC for representative compounds of this peptoid library. Analytical HPLC gradient: 0 – 100% solvent B over 30 min at 220 nm (where solvent A = 95% H2O, 5% MeCN, 0.05 % TFA; solvent B = 95% MeCN, 5% H2O, 0.03% TFA).

E. coli = format: cell-based; settings: 16 h
Protocol: (§2) Bacterial cultures were prepared by streaking the bacterial strain from a 4°C- or frozen stock culture to single colonies onto agar plates (containing the appropriate antibiotic for strains carrying antibiotic resistance plasmids) with an inoculation loop, followed by overnight incubation at 37 °C.
(§3) Primary overnight (o/n) cultures were prepared by inoculating a single colony from a streak plate into 5 mL of LB broth in a screw-capped culture tube, that was placed on a tube rotator at 37 °C (or 30 °C for sensitive strains) for overnight incubation. Before the usage of stock cultures the strains genotype were checked. Primary stocks were stored at 4°C for up to 6 weeks and always replaced from fresh colonies.
(§4) Fresh cultures used for experiments contained 0.1-0.5 mL o/n culture diluted into 8 mL of fresh medium in a standard test tube. Placed in a shaking water bath or on a tube rotator the bacteria were grown at the required temperature to the required cell density. Frozen stock cultures used for long term storage that can remain viable for 10 years were prepared by mixing 2.5 mL fresh o/n culture with 1.5 mL sterile 80% glycerol in a 5 mL sterile blood tube and stored at -20 °C.
(§5) MIC values were attained according to the previously described protocol4 and were conducted in 96-well plates (Costar, Fisher Scientific). Using the pre-prepared cultures, an innoculum density of 0.07 at 650 nm was set by comparing the absorbance with 0.5 MacFarland standard (240 μM BaCl2 in 0.18 M H2SO4). The innoculum was then diluted down ten-fold with Iso-sensitest broth (Oxoid, ThermoScientific) before use. Peptoids were initially dissolved in DMSO (5 mM) and then diluted further with Iso-sensitest broth to achieve a concentration range of 4 – 200 µM using 1 : 2 serial dilutions. 50 μl of innoculum and 50 μL of peptoid solution were added to each test well (final concentration range of 2 – 100 µM). Positive control containing only innoculum and Iso-sensitest broth; negative control containing inoculum and serial dilutions of ampicillin (from 250 microgram/mL to 2 microgram per mL); DMSO control containing innoculum and serial dilutions of DMSO; and Iso-sensitest broth were used as a sterile control. […] Quantitative data was attained from absorbance values using a microplate reader.

S. aureus = format: cell-based; settings: 16 h
Protocol: as §2, §3, §4, §5

[2] = log D by partitioning experiment in octanol and PBS; format: physicochemical; settings: pH 7.4
Protocol: as §1
A combination of UV spectrometry and dynamic light scattering were used to determine that no aggregation was taking place in either phase (see Supporting Information). The peptoid concentrations of both phases were then determined using UV–Vis spectroscopy and the logarithm of the ratio of […] (log D) was calculated (Figure 3B). […]
Partition experiments were carried out by putting 450 µL of octanol in contact with 450 µL of PBS, which contained between […] of peptoid. Each peptoid was measured in triplicate. […] The concentration of peptoid remaining in the PBS and the octanol was measured individually using the phenylalanine peak as before. […]

| RP-HPLC Retention (% MeCN) [1] | Structure (SMILES) | other results |
| --- | --- | --- |
| 37 % MeCN | NCCNCC(=O)N(CC(=O)N(CC(=O)N(CCN)CC(=O)N(CC(=O)N(CC(=O)N(CCN)CC(=O)N(CC(=O)N(CC(=O)N(CCN)CC(=O)N(CC(=O)N(CC(N)=O)Cc1ccccc1)Cc1ccccc1)Cc1ccccc1)Cc1ccccc1)Cc1ccccc1)Cc1ccccc1)Cc1ccccc1)Cc1ccccc1 [Peptoid 7] (H-[Gly(N-2-aminoethyl)][Nphe][Nphe][Gly(N-2-aminoethyl)][Nphe][Nphe][Gly(N-2-aminoethyl)][Nphe][Nphe][Gly(N-2-aminoethyl)][Nphe][Nphe]-NH2) | RP-HPLC Retention ([1]; 5% MeCN, 5% H2O): 15.2 min |
| 34 % MeCN | NCCNCC(=O)N(CC(=O)N(CC(=O)N(CCN)CC(=O)N(CC(=O)N(CC(=O)N(CCN)CC(=O)N(CC(=O)N(CC(N)=O)Cc1ccccc1)Cc1ccccc1)Cc1ccccc1)Cc1ccccc1)Cc1ccccc1)Cc1ccccc1 [Peptoid 8] (H-[Gly(N-2-aminoethyl)][Nphe][Nphe][Gly(N-2-aminoethyl)][Nphe][Nphe][Gly(N-2-aminoethyl)][Nphe][Nphe]-NH2) |  |
| 30 % MeCN | NCCNCC(=O)N(CC(=O)N(CC(=O)N(CCN)CC(=O)N(CC(=O)N(CC(N)=O)Cc1ccccc1)Cc1ccccc1)Cc1ccccc1)Cc1ccccc1 [Peptoid 9] (H-[Gly(N-2-aminoethyl)][Nphe][Nphe][Gly(N-2-aminoethyl)][Nphe][Nphe]-NH2) |  |
| 41 % MeCN | C[C@@H](c1ccccc1)N(CC(N)=O)C(=O)CN(C(=O)CN(CCN)C(=O)CN(C(=O)CN(C(=O)CN(CCN)C(=O)CN(C(=O)CN(C(=O)CN(CCN)C(=O)CN(C(=O)CN(C(=O)CNCCN)[C@@H](C)c1ccccc1)[C@@H](C)c1ccccc1)[C@@H](C)c1ccccc1)[C@@H](C)c1ccccc1)[C@@H](C)c1ccccc1)[C@@H](C)c1ccccc1)[C@@H](C)c1ccccc1 [Peptoid 10] (H-[Gly(N-2-aminoethyl)][Nspe][Nspe][Gly(N-2-aminoethyl)][Nspe][Nspe][Gly(N-2-aminoethyl)][Nspe][Nspe][Gly(N-2-aminoethyl)][Nspe][Nspe]-NH2) | MIC E. coli (E. coli): >100 µM; MIC S. aureus (S. aureus): 2 µM (≈ 3.41 µg/mL); HPLC RT ([1]; Table 2 / main text, chromatographic, RP-HPLC C18 retention time as measure of average hydrophobicity, gradient 0-100% solvent B over 30 min, 220 nm, 1 mL/min, A = 0.05% TFA, 95% H2O, 5% MeCN, B = 0.03% TFA, 5% H2O, 95% MeCN, around pH 2.2): 16.7 min |
| 39 % MeCN | C[C@@H](c1ccccc1)N(CC(N)=O)C(=O)CN(C(=O)CN(CCN)C(=O)CN(C(=O)CN(C(=O)CN(CCN)C(=O)CN(C(=O)CN(C(=O)CNCCN)[C@@H](C)c1ccccc1)[C@@H](C)c1ccccc1)[C@@H](C)c1ccccc1)[C@@H](C)c1ccccc1)[C@@H](C)c1ccccc1 [Peptoid 11] (H-[Gly(N-2-aminoethyl)][Nspe][Nspe][Gly(N-2-aminoethyl)][Nspe][Nspe][Gly(N-2-aminoethyl)][Nspe][Nspe]-NH2) | log D [2]: negative |
| 33 % MeCN | C[C@@H](c1ccccc1)N(CC(N)=O)C(=O)CN(C(=O)CN(CCN)C(=O)CN(C(=O)CN(C(=O)CNCCN)[C@@H](C)c1ccccc1)[C@@H](C)c1ccccc1)[C@@H](C)c1ccccc1 [Peptoid 12] |  |

The next lines start with the molecule.

| Structure (SMILES) | RP-HPLC Retention (% MeCN) [1] | other results |
| --- | --- | --- |
| NCCCCNCC(=O)N(CC(=O)N(CC(=O)N(CCCCN)CC(=O)N(CC(=O)N(CC(=O)N(CCCCN)CC(=O)N(CC(=O)N(CC(=O)N(CCCCN)CC(=O)N(CC(=O)N(CC(N)=O)Cc1ccccc1)Cc1ccccc1)Cc1ccccc1)Cc1ccccc1)Cc1ccccc1)Cc1ccccc1)Cc1ccccc1)Cc1ccccc1 [Peptoid 1] (H-[Nlys][Nphe][Nphe][Nlys][Nphe][Nphe][Nlys][Nphe][Nphe][Nlys][Nphe][Nphe]-NH2) | 37 % MeCN |  |
| NCCCCNCC(=O)N(CC(=O)N(CC(=O)N(CCCCN)CC(=O)N(CC(=O)N(CC(=O)N(CCCCN)CC(=O)N(CC(=O)N(CC(N)=O)Cc1ccccc1)Cc1ccccc1)Cc1ccccc1)Cc1ccccc1)Cc1ccccc1)Cc1ccccc1 [Peptoid 2] | 34 % MeCN |  |
| NCCCCNCC(=O)N(CC(=O)N(CC(=O)N(CCCCN)CC(=O)N(CC(=O)N(CC(N)=O)Cc1ccccc1)Cc1ccccc1)Cc1ccccc1)Cc1ccccc1 [Peptoid 3] (H-[Nlys][Nphe][Nphe][Nlys][Nphe][Nphe]-NH2) | 31 % MeCN |  |
| C[C@@H](c1ccccc1)N(CC(N)=O)C(=O)CN(C(=O)CN(CCCCN)C(=O)CN(C(=O)CN(C(=O)CN(CCCCN)C(=O)CN(C(=O)CN(C(=O)CNCCCCN)[C@@H](C)c1ccccc1)[C@@H](C)c1ccccc1)[C@@H](C)c1ccccc1)[C@@H](C)c1ccccc1)[C@@H](C)c1ccccc1 [Peptoid 5] (H-[Nlys][Nspe][Nspe][Nlys][Nspe][Nspe][Nlys][Nspe][Nspe]-NH2) | 37 % MeCN | RP-HPLC Retention ([1]; 5% MeCN, 5% H2O): 15.3 min |
| C[C@@H](c1ccccc1)N(CC(N)=O)C(=O)CN(C(=O)CN(CCCCN)C(=O)CN(C(=O)CN(C(=O)CNCCCCN)[C@@H](C)c1ccccc1)[C@@H](C)c1ccccc1)[C@@H](C)c1ccccc1 [Peptoid 6] (H-[Nlys][Nspe][Nspe][Nlys][Nspe][Nspe]-NH2) | 33 % MeCN | RP-HPLC Retention ([1]; 5% MeCN, 5% H2O): 14.4 min |
